These results are taken from publication PMC7323874, “Vancomycin Resistance Is Overcome by Conjugation of Polycationic Peptides” (Angewandte Chemie (International Ed. in English), 2020).

A value given as a limit tells only on which side of the number the result lay.

In data set [1] the test system is A. baumannii SC300007. Kind of data set: microbe, parasite or virus in culture. It counts as cell-based. The method, then: (§1) Antimicrobial testing – Microdilution
(§2) Antimicrobial testing was performed according to CLSI and EUCAST guidelines in microdilution.8-10 Therefore, all tested substances as well as controls were dissolved in water in different concentrations and serially diluted in MHB II (cation adjusted) on the 96-well plate. A logarithmic growing, overnight culture of the respective bacterial strain was used and adjusted to a McFarland corresponding to 1 × 10^8 cfu/ml. Afterwards the bacterial suspension was diluted to 1 ×10^6 cfu/ml and loaded on the 96-well polypropylene plates, resulting in a final bacterial concentration of 5 × 10^5 cfu/ml. After an incubation at 35 ± 1 °C for 18-20 hours (re-controlled after 24 hours) the MIC was determined as the lowest concentration without visible growth as described previously.11 For direct comparison of the tested substances, all results were calculated in mg/ml and mol/ml afterwards. […]
(§3) As further control substance, the glycopeptide antibiotic teicoplanin was evaluated. […] Resistance development in S. aureus was determined by passaging bacteria in increasing amounts of vancomycin, FU002 or, as control, fusidic acid. In principle, tubes with twofold dilutions of the compounds in 1 ml Muller Hinton broth were inoculated 1:100 with bacterial suspension. The tubes were then incubated for 24 h at 37 °C under shaking. After each passage, the tube with the highest compound concentration showing bacterial growth was used to inoculate the tubes of the next passage (1:100). The tube with the lowest compound concentration showing no growth was defined as the passage MIC. Passaging was stopped after 8 passages.
(§4) For the validation of possible side effects provoked by the conjugates, the cytotoxic effect of the lead candidate FU002 on human cells was assessed in a colorimetric viability assay. Different human cell types were used including kidney and liver cell lines as well as freshly isolated peripheral blood cells. Cells were seeded into 96-well microtiter plates at 2 x 10^4 cells/well and cultured overnight (18-24 h) in a […]

Data set [2] has as its system K. pneumoniae ATCC 700603. The experiment in a line: microbe, parasite or virus in culture. It counts as cell-based. The method, then: as §1, §2, §3, §4
In data set [3] the test system is human cell lines (blood, liver, kidney). Kind of data set: Cytotoxicity, XTT viability assay. The note with it: 64 µg/ml, 24 h incubation, three human cell lines (blood, liver, kidney). It counts as cell-based.
Data set [4] has as its system Staphylococcus aureus USA300. The experiment in a line: Broth microdilution on vancomycin-sensitive strain. Type of data set: cell-based. The protocol: as §1, §2
(§5) Resistance development in S. aureus was determined by passaging bacteria in increasing amounts of vancomycin, FU002 or, as control, fusidic acid. In principle, tubes with twofold dilutions of the compounds in 1 ml Muller Hinton broth were inoculated 1:100 with bacterial suspension. […]
(§6) For the validation of possible side effects provoked by the conjugates, the cytotoxic effect of the lead candidate FU002 on human cells was assessed in a colorimetric viability assay. […]

The test system of data set [5] is E. coli ATCC 25922. Type of data set: cell-based. The conditions noted are these: median of at least triplicates on two different plates. The protocol: as §1, §2, §5, §6
In data set [6] the test system is vancomycin-resistant strains (vanA, vanB and vanC). It counts as cell-based. The note with it: all values, vanB and vanC resistance types. The method, then:
as §1, §2
(§7) As further control substance, the glycopeptide antibiotic teicoplanin was evaluated. […] Resistance development in S. aureus was determined by passaging bacteria in increasing amounts of vancomycin, FU002 or, as control, fusidic acid. […]
as §6

Data set [7] relates to P. aeruginosa ATCC 27853. It counts as cell-based. The conditions noted are these: median of at least triplicates on two different plates. The method, then:
as §1, §2, §7, §6

In data set [8] the test system is Staphylococcus aureus USA300 LAC (MRSA) infected mice. Kind of data set: In vivo efficacy model in infected mice. The conditions noted are these: female Balb/c mice, FU002 56.4 mg/kg body weight per day.

Regarding `CN[C@H](CC(C)C)C(=O)N[C@H]1C(=O)N[C@@H](CC(N)=O)C(=O)N[C@H]2C(=O)N[C@H]3C(=O)N[C@H](C(=O)N[C@H](C(=O)O)c4cc(O)cc(O)c4-c4cc3ccc4O)[C@H](O)c3ccc(c(Cl)c3)Oc3cc2cc(c3O[C@@H]2O[C@H](CO)[C@@H](O)[C@H](O)[C@H]2O[C@H]2C[C@](C)(N)[C@H](O)[C@H](C)O2)Oc2ccc(cc2Cl)[C@H]1O` [vancomycin], the MIC was at least 640 µg/mL in data set [1] (Acinetobacter baumannii, SC300007) and at least 640 µg/mL in data set [2] (Klebsiella pneumoniae, ATCC700603).

With `CC(C)C[C@H](C(=O)N[C@H]1C(=O)N[C@@H](CC(N)=O)C(=O)N[C@H]2C(=O)N[C@H]3C(=O)N[C@H](C(=O)N[C@H](C(=O)O)c4cc(O)cc(O)c4-c4cc3ccc4O)[C@H](O)c3ccc(c(Cl)c3)Oc3cc2cc(c3O[C@@H]2O[C@H](CO)[C@@H](O)[C@H](O)[C@H]2O[C@H]2C[C@](C)(N)[C@H](O)[C@H](C)O2)Oc2ccc(cc2Cl)[C@H]1O)N(C)C(=O)C1CCC(CN2C(=O)CC(SC[C@H](NC(=O)[C@H](CCCNC(=N)N)NC(=O)[C@H](CCCNC(=N)N)NC(=O)[C@H](CCCNC(=N)N)NC(=O)[C@H](CCCNC(=N)N)NC(=O)[C@H](CCCNC(=N)N)NC(=O)[C@@H](N)CCCNC(=N)N)C(N)=O)C2=O)CC1` (some centres unmarked) [FU002], the cytotoxicity result in data set [3] is “no relevant cytotoxicity”. Also, the MIC in data set [1] (A. baumannii SC300007, median of at least triplicates on two different plates) was at least 640 µg/mL; in data set [2] (K. pneumoniae ATCC 700603, median of at least triplicates on two different plates) it was at least 640 µg/mL; in data set [5] it was at least 640 µg/mL; in data set [7] it was at least 640 µg/mL. Also, the “activity compared with vancomycin (MIC)” value in data set [4] was “at least as active as vancomycin”. The “MIC (minimum inhibitory concentration)” value in data set [6] is recorded as “below 4 mg L^−1”. Also, the “bacterial burden, colony forming units (CFU) in the liver” value in data set [8] (day 4 post infection, p < 0.05, Kruskal-Wallis test) is on record as “significant reduction of bacterial burden”. Further, in data set [8] (i.v. infection, doses every 12 hours, start 2 hours p.i.), the “body weight of infected mice” value is “No infection‐related body weight loss”.
